Seven compounds from patent publication US20230286973A1, “PROTEIN SECRETION INHIBITORS” (KEZAR LIFE SCIENCES, priority 2020, published 2023) can be followed below.

Some results are limits rather than exact numbers.

Data set [1] concerns PD1-ss+10aa/Gaussia Luciferase. Put plainly: Dox-Induced PD1-ss-Gluc Assay. The class given is cell-based. Particulars: 24 hr Dox induction; 293FRT/TO cells; mean; read-out: 24 hr Dox Inducible PD1ssGluc 293FRT/TO: Mean IC50. The method in brief:
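Flp-In 293 T-REx cells stably carrying a doxycycline-inducible Gaussia luciferase fused to the PD1 signal sequence plus 10 aa were plated the day before. Compound dilutions in DMSO/media containing doxycycline were then added and incubated at 37 °C, 5% CO2. Data for undefined stereochemistry refer to stereoisomer mixtures.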

Data set [2] can be described thus: Liver Microsome Stability Assay (mouse). Particulars: mouse liver microsomes, with NADPH, 1.0 uM compound. Background: Microsomes from liver hold many membrane-bound enzymes, among them those of drug oxidation.
Method: (§1) Stability of a compound was assessed in the presence of liver microsomes from various sources—mouse, rat, monkey and human liver microsomes. 1.0 uM compound, 0.4% DMSO in 0.1 M Potassium Phosphate with 1.0 mg/mL liver microsomes, were incubated at 37° C. with or without 1 mM NADPH. The samples were quenched at 0, and 30 minutes.
Data set [3] concerns HER3-ss+4aa/Gaussia Luciferase. Nature of the data set: Dox-Induced Her3-ss-Gluc Assay. The class given is cell-based. The note with it: 24 hr Dox induction; 293FRT/TO cells; mean; read-out: 24 hr Dox Inducible Her3(ss + 4)Gluc 293FRT/TO: Mean IC50. The method in brief: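 Expression of a Gaussia luciferase reporter carrying the HER3 signal sequence plus 4 amino acids is induced by doxycycline in stably transfected Flp-In 293 T-REx cells. Compounds are added with doxycycline at 37° C., 5% CO2. Undefined stereocentres denote stereoisomer mixtures.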

Data set [4] has as its system multiple myeloma cell line NCI-H929. Nature of the data set: H929 Cell Viability Assay. The data set is classed as cell-based, human. The note with it: Homo sapiens, NCI-H929, 48 h, NCI-H929 cells, Celltiter-Glo. The essentials:
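Plate the myeloma cells in RPMI 1640 with 10% FBS, add serially diluted compound, incubate for 48 hours at 37° C, then add CellTiter-Glo and read luciferase signal.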
On the technique in general: In ATP-based viability assays light output follows the ATP content of the culture.

Data set [5] is described as follows: Liver Microsome Stability Assay (human). Particulars: human liver microsomes, with NADPH, 1.0 uM compound.
Method: as §1
In data set [6] the test system is multiple myeloma cell line U266B1. Put plainly: U266 Cell Viability Assay. The class given is cell-based, human. Particulars: Homo sapiens, U-266, 48 h, U266B1 cells, Celltiter-Glo. The method in brief:
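48 h treatment, 37° C./5% CO2, RPMI 1640 + 10% FBS; viability by CellTiter-Glo luminescence.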

Data set [7] is described as follows: Liver Microsome Stability Assay (rat). Particulars: rat liver microsomes, with NADPH, 1.0 uM compound.
Method: as §1
The subject of data set [8] is IL-2-FL/Gaussia Luciferase. Nature of the data set: Dox Induced IL2-FL-Gluc Assay. Particulars: for IC50: 24 hr Dox induction, 293FRT/TO cells, mean, read-out: 24 hr Dox Inducible IL2FLGluc 293FRT/TO: Mean IC50; for 24 hr Dox Inducible IL2FLGluc 293FRT/TO: IL2/PD1: ratio of IL2FLGluc IC50 to PD1ssGluc IC50, '<=>' given where both are I.A. The data set is classed as cell-based. The method in brief: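 Reporter is Gaussia luciferase fused to the 3′ end of full-length IL-2 (aa 1-153), expressed from a doxycycline-inducible T-REx construct in stably selected Flp-In 293 cells. Compounds were co-added with doxycycline and incubated at 37° C, 5% CO2.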

Data set [9] has as its system TNFα-FL/Gaussia Luciferase. Nature of the data set: Dox Induced TNFα-FL-Gluc Assay. The class given is cell-based. The note with it: for IC50: 24 hr Dox induction, 293FRT/TO cells, mean, read-out: 24 hr Dox Inducible TNFaFLGluc 293FRT/TO: Mean IC50; for 24 hr Dox Inducible TNFaFLGluc 293FRT/TO: TNF/PD1: ratio of TNFaFLGluc IC50 to PD1ssGluc IC50, '<=>' given where both are I.A. The essentials: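 Cells are seeded one day ahead, then treated with compound plus doxycycline at 37 °C, 5% CO2. The stable Flp-In 293 T-REx line expresses full-length TNFα (amino acids 1-233) with Gaussia luciferase fused to its 3′ end, inducibly via T-REx.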

Data set [10] in a line: Liver Microsome Stability Assay (monkey). Particulars: monkey liver microsomes, with NADPH, 1.0 uM compound.
Method: as §1

Broadly, the EC50 is the concentration that produces a half-maximal response. Regarding `O=C(Nc1nc([C@H]2CCCN2c2ccccc2)cs1)c1cccn1Cc1ccnnc1` [Compound C102, (R)-N-(4-(1-phenylpyrrolidin-2-yl)thiazol-2-yl)-1-(pyridazin-4-ylmethyl)-1H-pyrrole-2-carboxamide], the IC50 in [1] came to 44.2 nM; in [3] it was 109 nM; in data set [8], 97.5 nM; in data set [9], 984 nM. Moreover, the “Liver Microsome Stability (Multiple Species): Mouse - % Remaining after 30 min w/NADPH” value in data set [2] was determined as 6.44%. The EC50 is 3980 nM in data set [4] and 14600 nM in data set [6]. In [5], the “Liver Microsome Stability (Multiple Species): Human - % Remaining after 30 min w/NADPH” value was 0.93%. Also, in data set [7], the “Liver Microsome Stability (Multiple Species): Rat - % Remaining after 30 min w/NADPH” value is recorded as 2.73%. Also, the “24 hr Dox Inducible IL2FLGluc 293FRT/TO: IL2/PD1” value in data set [8] came to 2.2. The “24 hr Dox Inducible TNFaFLGluc 293FRT/TO: TNF/PD1” value in data set [9] is 22.2. In addition, in data set [10], the “Liver Microsome Stability (Multiple Species): Monkey - % Remaining after 30 min w/NADPH” value stood at 0.39%.

Turning to `CC(=O)N1CCC(Oc2ccc(N3CCC[C@@H]3c3csc(NC(=O)c4cccn4CC4CCOCC4)n3)cc2)CC1` [Compound C103, (R)-N-(4-(1-(4-((1-acetylpiperidin-4-yl)oxy)phenyl)pyrrolidin-2-yl)thiazol-2-yl)-1-((tetrahydro-2H-pyran-4-yl)methyl)-1H-pyrrole-2-carboxamide], the IC50 in data set [1] amounted to 665 nM; in [3], 1340 nM; in data set [8] it was 1160 nM; in data set [9], 4990 nM. Moreover, in data set [2], the “Liver Microsome Stability (Multiple Species): Mouse - % Remaining after 30 min w/NADPH” value came out at 54.8%. Also, the figures for the EC50 in data set [4] and in data set [6] were 14000 nM and greater than 25000 nM, respectively. Moreover, in [5], the “Liver Microsome Stability (Multiple Species): Human - % Remaining after 30 min w/NADPH” value is listed as 34.8%. Moreover, the “Liver Microsome Stability (Multiple Species): Rat - % Remaining after 30 min w/NADPH” value in data set [7] worked out at 30%. The “24 hr Dox Inducible IL2FLGluc 293FRT/TO: IL2/PD1” value in data set [8] came out at 1.7. In data set [9], the “24 hr Dox Inducible TNFaFLGluc 293FRT/TO: TNF/PD1” value worked out at 7.5. For the same compound, the “Liver Microsome Stability (Multiple Species): Monkey - % Remaining after 30 min w/NADPH” value in [10] stood at 12.9%.

With `CC(=O)NCc1ccc(N2CCC[C@@H]2c2csc(NC(=O)c3cccn3CC3CCOCC3)n2)cc1` [Compound C104, (R)-N-(4-(1-(4-(acetamidomethyl)phenyl)pyrrolidin-2-yl)thiazol-2-yl)-1-((tetrahydro-2H-pyran-4-yl)methyl)-1H-pyrrole-2-carboxamide], the IC50 was determined as 143 nM in data set [1], 350 nM in data set [3], 412 nM in data set [8] and 2410 nM in [9]. Moreover, the “Liver Microsome Stability (Multiple Species): Mouse - % Remaining after 30 min w/NADPH” value in [2] stood at 4.94%. In addition, the 50% effective concentration (EC50) in data set [4] was 6160 nM; in data set [6] it was greater than 25000 nM. Moreover, in data set [5], the “Liver Microsome Stability (Multiple Species): Human - % Remaining after 30 min w/NADPH” value is 3.01%. For the same compound, the “Liver Microsome Stability (Multiple Species): Rat - % Remaining after 30 min w/NADPH” value in data set [7] came to 0.82%. Also, in data set [8], the “24 hr Dox Inducible IL2FLGluc 293FRT/TO: IL2/PD1” value turned out to be 2.9. In addition, the “24 hr Dox Inducible TNFaFLGluc 293FRT/TO: TNF/PD1” value in data set [9] is given as 16.8. Moreover, the “Liver Microsome Stability (Multiple Species): Monkey - % Remaining after 30 min w/NADPH” value in [10] turned out to be 0.09%.

As for `NC(=O)c1ccc(N2CCC[C@@H]2c2csc(NC(=O)c3cccn3CC3CCOCC3)n2)cc1` [Compound C105, (R)-N-(4-(1-(4-carbamoylphenyl)pyrrolidin-2-yl)thiazol-2-yl)-1-((tetrahydro-2H-pyran-4-yl)methyl)-1H-pyrrole-2-carboxamide], the IC50 amounted to 36 nM in [1], 107 nM in data set [3], 157 nM in [8] and 900 nM in data set [9]. The “Liver Microsome Stability (Multiple Species): Mouse - % Remaining after 30 min w/NADPH” value in data set [2] stood at 1.99%. Further, the EC50 was 3650 nM in [4] and greater than 25000 nM in data set [6]. Also, the “Liver Microsome Stability (Multiple Species): Human - % Remaining after 30 min w/NADPH” value in data set [5] was 0.19%. In data set [7], the “Liver Microsome Stability (Multiple Species): Rat - % Remaining after 30 min w/NADPH” value is listed as 1.71%. In data set [8], the “24 hr Dox Inducible IL2FLGluc 293FRT/TO: IL2/PD1” value stood at 4.4. Besides, the “24 hr Dox Inducible TNFaFLGluc 293FRT/TO: TNF/PD1” value in data set [9] is recorded as 25. The “Liver Microsome Stability (Multiple Species): Monkey - % Remaining after 30 min w/NADPH” value in [10] is 0.67%.

Take `N#CC1CC(Cn2cccc2C(=O)Nc2nc([C@H]3CCCN3c3ccccc3)cs2)C1` (stereo partly drawn) [Compound C106, (R)-1-((3-cyanocyclobutyl)methyl)-N-(4-(1-phenylpyrrolidin-2-yl)thiazol-2-yl)-1H-pyrrole-2-carboxamide]: the IC50 in data set [1] was found to be 1090 nM; in data set [3], 1430 nM; in [8], 2640 nM; in data set [9], 19400 nM. Moreover, in [2], the “Liver Microsome Stability (Multiple Species): Mouse - % Remaining after 30 min w/NADPH” value is listed as 28.8%. Moreover, the EC50 in data set [4] and in data set [6] was greater than 25000 nM throughout. In [5], the “Liver Microsome Stability (Multiple Species): Human - % Remaining after 30 min w/NADPH” value was 19%. The “Liver Microsome Stability (Multiple Species): Rat - % Remaining after 30 min w/NADPH” value in data set [7] came to 3.54%. Further, in data set [8], the “24 hr Dox Inducible IL2FLGluc 293FRT/TO: IL2/PD1” value is recorded as 2.4. Further, the “24 hr Dox Inducible TNFaFLGluc 293FRT/TO: TNF/PD1” value in data set [9] was found to be 17.7. Further, the “Liver Microsome Stability (Multiple Species): Monkey - % Remaining after 30 min w/NADPH” value in data set [10] was 1.96%.

In the case of `CC(=O)Nc1ccc(N2CCC[C@@H]2c2csc(NC(=O)c3cccn3CC3CCOCC3)n2)cc1` [Compound C107, (R)-N-(4-(1-(4-acetamidophenyl)pyrrolidin-2-yl)thiazol-2-yl)-1-((tetrahydro-2H-pyran-4-yl)methyl)-1H-pyrrole-2-carboxamide], the IC50 in data set [1] came out at 32.2 nM; in data set [3], 56.2 nM; in data set [8], 87.1 nM; in data set [9], 793 nM. In addition, the “Liver Microsome Stability (Multiple Species): Mouse - % Remaining after 30 min w/NADPH” value in [2] is given as 16.4%. Moreover, the values for the EC50 in data set [4] and in [6] were 2160 nM and greater than 25000 nM, respectively. For the same compound, the “Liver Microsome Stability (Multiple Species): Human - % Remaining after 30 min w/NADPH” value in data set [5] stood at 23.7%. In data set [7], the “Liver Microsome Stability (Multiple Species): Rat - % Remaining after 30 min w/NADPH” value worked out at 18.2%. In data set [8], the “24 hr Dox Inducible IL2FLGluc 293FRT/TO: IL2/PD1” value amounted to 2.7. Moreover, in data set [9], the “24 hr Dox Inducible TNFaFLGluc 293FRT/TO: TNF/PD1” value was found to be 24.6. In data set [10], the “Liver Microsome Stability (Multiple Species): Monkey - % Remaining after 30 min w/NADPH” value came to 5.47%.

On to `CCc1ccc(N2CCC[C@@H]2c2csc(NC(=O)c3cccn3CC3CCOCC3)n2)cc1` [Compound C110, (R)-N-(4-(1-(4-ethylphenyl)pyrrolidin-2-yl)thiazol-2-yl)-1-((tetrahydro-2H-pyran-4-yl)methyl)-1H-pyrrole-2-carboxamide], for which the IC50 worked out at 31.4 nM in [1], 46.4 nM in data set [3], 94.9 nM in [8] and 302 nM in [9]. Further, the “Liver Microsome Stability (Multiple Species): Mouse - % Remaining after 30 min w/NADPH” value in [2] is given as 74.3%. Besides, the EC50 in data set [4] is 1780 nM; in data set [6], greater than 25000 nM. Further, the “Liver Microsome Stability (Multiple Species): Human - % Remaining after 30 min w/NADPH” value in data set [5] is on record as 61.3%. Moreover, the “Liver Microsome Stability (Multiple Species): Rat - % Remaining after 30 min w/NADPH” value in [7] stood at 36%. In [8], the “24 hr Dox Inducible IL2FLGluc 293FRT/TO: IL2/PD1” value stood at 3. Further, the “24 hr Dox Inducible TNFaFLGluc 293FRT/TO: TNF/PD1” value in data set [9] was found to be 9.61. For the same compound, in data set [10], the “Liver Microsome Stability (Multiple Species): Monkey - % Remaining after 30 min w/NADPH” value was found to be 22.2%.
